Measured values published in patent publication US20260070903A1, “NOVEL PYRIDO[3,4-D]PYRIMIDIN-8-ONE DERIVATIVE HAVING PROTEIN KINASE INHIBITORY ACTIVITY, AND PHARMACEUTICAL COMPOSITION FOR PREVENTING, ALLEVIATING, OR TREATING CANCER, COMPRISING SAME” (KOREA INSTITUTE OF SCIENCE AND TECHNOLOGY, priority 2019, published 2026).
pIC50: −log10 of the molar value.

What was measured:
EPHA7 = EPHA7 (Homo sapiens, UniProt Q15375); experiment: Kinase panel biochemical assay, EPHA7; settings: single concentration of 1 μM, read-out: percent inhibition of kinase
Procedure: (§1) As a test compound, Compound No. 55 was used. The percent inhibition of each kinase when treated with the test compound at a single concentration of 1 μM was measured, and the residual enzyme activity values (%) of the kinases were calculated. Kinases whose calculated residual enzyme activity values (%) was 30% or less (i.e., kinases inhibited by 70% or more) are as follows: […]

ZAK = ZAK (Homo sapiens, UniProt Q9NYL2); experiment: Kinase panel biochemical assay, ZAK; settings: single concentration of 1 μM, read-out: percent inhibition of kinase
Procedure: as §1

BLK = BLK (Homo sapiens, UniProt P51451); experiment: Kinase panel biochemical assay, BLK; settings: single concentration of 1 μM, read-out: percent inhibition of kinase
Procedure: as §1

LYNB = LYNB (Homo sapiens, UniProt P07948); experiment: Kinase panel biochemical assay, LYNB; settings: single concentration of 1 μM, read-out: percent inhibition of kinase
Procedure: as §1

DDR1 = DDR1 (Homo sapiens, UniProt Q08345); experiment: Kinase panel biochemical assay, DDR1; settings: single concentration of 1 μM, read-out: percent inhibition of kinase
Procedure: as §1

FYN = FYN (Homo sapiens, UniProt P06241); experiment: Kinase panel biochemical assay, FYN; settings: single concentration of 1 μM, read-out: percent inhibition of kinase
Procedure: as §1

TXK = TXK (Homo sapiens, UniProt P42681); experiment: Kinase panel biochemical assay, TXK; settings: single concentration of 1 μM, read-out: percent inhibition of kinase
Procedure: as §1

YSK4 = YSK4 (Homo sapiens, UniProt Q56UN5); experiment: Kinase panel biochemical assay, YSK4; settings: single concentration of 1 μM, read-out: percent inhibition of kinase
Procedure: as §1

EPHA3 = EPHA3 (Homo sapiens, UniProt P29320); experiment: Kinase panel biochemical assay, EPHA3; settings: single concentration of 1 μM, read-out: percent inhibition of kinase
Procedure: as §1

TAOK2 = TAOK2 (Homo sapiens, UniProt Q9UL54); experiment: Kinase panel biochemical assay, TAOK2; settings: single concentration of 1 μM, read-out: percent inhibition of kinase
Procedure: as §1

RAF1 = RAF1 (Homo sapiens, UniProt P04049); experiment: Kinase panel biochemical assay, RAF1; settings: single concentration of 1 μM, read-out: percent inhibition of kinase
Procedure: as §1

GCK = target: T1, GCK (Homo sapiens, UniProt Q12851); experiment: Inhibitory activity against GCK kinase (IC50); type: biochemical
T1 sequence (Q12851 1-820): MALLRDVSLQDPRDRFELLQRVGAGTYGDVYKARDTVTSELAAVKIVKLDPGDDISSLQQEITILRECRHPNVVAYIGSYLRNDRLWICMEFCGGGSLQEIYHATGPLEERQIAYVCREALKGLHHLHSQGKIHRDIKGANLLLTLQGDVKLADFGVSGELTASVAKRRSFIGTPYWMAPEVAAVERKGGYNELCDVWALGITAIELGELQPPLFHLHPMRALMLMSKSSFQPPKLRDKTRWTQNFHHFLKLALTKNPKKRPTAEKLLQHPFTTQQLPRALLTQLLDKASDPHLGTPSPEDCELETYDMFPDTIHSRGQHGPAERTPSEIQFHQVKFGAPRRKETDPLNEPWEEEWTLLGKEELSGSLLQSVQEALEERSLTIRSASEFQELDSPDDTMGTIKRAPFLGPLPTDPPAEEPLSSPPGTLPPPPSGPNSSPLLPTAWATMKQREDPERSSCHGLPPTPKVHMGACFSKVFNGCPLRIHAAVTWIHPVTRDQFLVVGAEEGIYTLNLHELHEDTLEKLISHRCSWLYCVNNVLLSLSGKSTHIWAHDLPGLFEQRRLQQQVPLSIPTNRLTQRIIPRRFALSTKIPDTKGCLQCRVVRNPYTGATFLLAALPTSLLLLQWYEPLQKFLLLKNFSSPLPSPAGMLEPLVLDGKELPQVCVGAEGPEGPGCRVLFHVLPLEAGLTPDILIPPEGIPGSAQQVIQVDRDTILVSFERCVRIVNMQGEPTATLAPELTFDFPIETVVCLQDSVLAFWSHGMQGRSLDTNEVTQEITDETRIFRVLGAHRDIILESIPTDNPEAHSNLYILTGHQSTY
Procedure: The inhibitory activities of the compounds of the present disclosure against two kinases, GCK and ACK1, were measured, and the IC50 values thereof were calculated.

JAK1 = JAK1 (Homo sapiens, UniProt P23458); experiment: Kinase panel biochemical assay, JAK1; settings: single concentration of 1 μM, read-out: percent inhibition of kinase
Procedure: as §1

ARAF = ARAF (Homo sapiens, UniProt P10398); experiment: Kinase panel biochemical assay, ARAF; settings: single concentration of 1 μM, read-out: percent inhibition of kinase
Procedure: as §1

CSK = CSK (Homo sapiens, UniProt P41240); experiment: Kinase panel biochemical assay, CSK; settings: single concentration of 1 μM, read-out: percent inhibition of kinase
Procedure: as §1

Ba/F3 (N-Ras G12D) = experiment: Proliferation inhibitory activity, Ba/F3 N-Ras G12D; type: cell-based; settings: Mus musculus, BaF3
Procedure: The inhibitory activities of the compounds of the present disclosure against the proliferation of the mt-NRAS (G12D) Ba/F3 and OCI-AML3 (mt-NRAS) cell lines were measured and the GI50 values thereof were calculated.

RET = RET (Homo sapiens, UniProt P07949); experiment: Kinase panel biochemical assay, RET; settings: single concentration of 1 μM, read-out: percent inhibition of kinase
Procedure: as §1

PEAK1 = PEAK1 (Homo sapiens, UniProt Q9H792); experiment: Kinase panel biochemical assay, PEAK1; settings: single concentration of 1 μM, read-out: percent inhibition of kinase
Procedure: as §1

FGFR1 = FGFR1 (Homo sapiens, UniProt P11362); experiment: Kinase panel biochemical assay, FGFR1; settings: single concentration of 1 μM, read-out: percent inhibition of kinase
Procedure: as §1

EPHB1 = EPHB1 (Homo sapiens, UniProt P54762); experiment: Kinase panel biochemical assay, EPHB1; settings: single concentration of 1 μM, read-out: percent inhibition of kinase
Procedure: as §1

BMX = BMX (Homo sapiens, UniProt P51813); experiment: Kinase panel biochemical assay, BMX; settings: single concentration of 1 μM, read-out: percent inhibition of kinase
Procedure: as §1

EPHA5 = EPHA5 (Homo sapiens, UniProt P54756); experiment: Kinase panel biochemical assay, EPHA5; settings: single concentration of 1 μM, read-out: percent inhibition of kinase
Procedure: as §1

EPHB4 = EPHB4 (Homo sapiens, UniProt P54760); experiment: Kinase panel biochemical assay, EPHB4; settings: single concentration of 1 μM, read-out: percent inhibition of kinase
Procedure: as §1

FMS = FMS (Homo sapiens, UniProt P07333); experiment: Kinase panel biochemical assay, FMS; settings: single concentration of 1 μM, read-out: percent inhibition of kinase
Procedure: as §1

JAK2 = JAK2 (Homo sapiens, UniProt O60674); experiment: Kinase panel biochemical assay, JAK2; settings: single concentration of 1 μM, read-out: percent inhibition of kinase
Procedure: as §1

YES = YES (Homo sapiens, UniProt P07947); experiment: Kinase panel biochemical assay, YES; settings: single concentration of 1 μM, read-out: percent inhibition of kinase
Procedure: as §1

SRMS = SRMS (Homo sapiens, UniProt Q9H3Y6); experiment: Kinase panel biochemical assay, SRMS; settings: single concentration of 1 μM, read-out: percent inhibition of kinase
Procedure: as §1

PDGFRb = PDGFRb (Homo sapiens, UniProt P09619); experiment: Kinase panel biochemical assay, PDGFRb; settings: single concentration of 1 μM, read-out: percent inhibition of kinase
Procedure: as §1

Chain of ARAF (P10398 whole entry): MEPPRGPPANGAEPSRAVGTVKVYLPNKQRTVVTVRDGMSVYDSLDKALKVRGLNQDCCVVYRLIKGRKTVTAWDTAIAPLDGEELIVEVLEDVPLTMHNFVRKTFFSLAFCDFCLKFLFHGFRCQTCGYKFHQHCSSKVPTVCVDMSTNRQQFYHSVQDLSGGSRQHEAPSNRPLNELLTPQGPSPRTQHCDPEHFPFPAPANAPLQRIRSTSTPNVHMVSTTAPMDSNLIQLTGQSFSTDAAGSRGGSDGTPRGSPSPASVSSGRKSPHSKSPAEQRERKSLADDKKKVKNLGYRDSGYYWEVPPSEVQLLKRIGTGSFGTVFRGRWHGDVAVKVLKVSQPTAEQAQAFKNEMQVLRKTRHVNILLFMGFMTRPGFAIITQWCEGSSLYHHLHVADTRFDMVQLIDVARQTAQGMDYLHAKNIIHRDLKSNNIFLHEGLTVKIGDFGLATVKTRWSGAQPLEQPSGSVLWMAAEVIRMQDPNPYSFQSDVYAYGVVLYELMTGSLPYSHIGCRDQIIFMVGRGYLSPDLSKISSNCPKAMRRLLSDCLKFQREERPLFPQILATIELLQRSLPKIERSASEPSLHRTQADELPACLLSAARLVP
Chain of ZAK (Q9NYL2 whole entry): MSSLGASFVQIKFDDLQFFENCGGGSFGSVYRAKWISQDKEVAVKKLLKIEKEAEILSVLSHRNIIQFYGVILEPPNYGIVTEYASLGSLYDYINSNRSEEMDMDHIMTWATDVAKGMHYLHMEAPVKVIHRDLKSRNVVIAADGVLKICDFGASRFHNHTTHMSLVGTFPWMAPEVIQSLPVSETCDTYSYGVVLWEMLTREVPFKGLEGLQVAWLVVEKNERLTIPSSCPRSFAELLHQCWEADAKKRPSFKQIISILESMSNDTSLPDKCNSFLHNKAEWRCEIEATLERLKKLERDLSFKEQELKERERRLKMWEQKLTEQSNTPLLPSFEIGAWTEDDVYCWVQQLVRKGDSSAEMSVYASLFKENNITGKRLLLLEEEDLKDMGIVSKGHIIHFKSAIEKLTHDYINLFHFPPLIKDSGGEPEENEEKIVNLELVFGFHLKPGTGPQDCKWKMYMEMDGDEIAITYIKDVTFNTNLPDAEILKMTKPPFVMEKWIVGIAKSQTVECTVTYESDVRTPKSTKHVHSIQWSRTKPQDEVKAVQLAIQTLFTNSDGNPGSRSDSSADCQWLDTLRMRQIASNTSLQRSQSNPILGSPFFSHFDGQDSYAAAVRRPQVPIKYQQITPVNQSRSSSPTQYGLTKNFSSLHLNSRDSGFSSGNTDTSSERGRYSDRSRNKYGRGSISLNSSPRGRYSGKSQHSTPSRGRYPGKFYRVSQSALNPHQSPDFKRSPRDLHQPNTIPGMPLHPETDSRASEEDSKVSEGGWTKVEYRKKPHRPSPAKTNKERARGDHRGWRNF
Chain of TAOK2 (Q9UL54 whole entry): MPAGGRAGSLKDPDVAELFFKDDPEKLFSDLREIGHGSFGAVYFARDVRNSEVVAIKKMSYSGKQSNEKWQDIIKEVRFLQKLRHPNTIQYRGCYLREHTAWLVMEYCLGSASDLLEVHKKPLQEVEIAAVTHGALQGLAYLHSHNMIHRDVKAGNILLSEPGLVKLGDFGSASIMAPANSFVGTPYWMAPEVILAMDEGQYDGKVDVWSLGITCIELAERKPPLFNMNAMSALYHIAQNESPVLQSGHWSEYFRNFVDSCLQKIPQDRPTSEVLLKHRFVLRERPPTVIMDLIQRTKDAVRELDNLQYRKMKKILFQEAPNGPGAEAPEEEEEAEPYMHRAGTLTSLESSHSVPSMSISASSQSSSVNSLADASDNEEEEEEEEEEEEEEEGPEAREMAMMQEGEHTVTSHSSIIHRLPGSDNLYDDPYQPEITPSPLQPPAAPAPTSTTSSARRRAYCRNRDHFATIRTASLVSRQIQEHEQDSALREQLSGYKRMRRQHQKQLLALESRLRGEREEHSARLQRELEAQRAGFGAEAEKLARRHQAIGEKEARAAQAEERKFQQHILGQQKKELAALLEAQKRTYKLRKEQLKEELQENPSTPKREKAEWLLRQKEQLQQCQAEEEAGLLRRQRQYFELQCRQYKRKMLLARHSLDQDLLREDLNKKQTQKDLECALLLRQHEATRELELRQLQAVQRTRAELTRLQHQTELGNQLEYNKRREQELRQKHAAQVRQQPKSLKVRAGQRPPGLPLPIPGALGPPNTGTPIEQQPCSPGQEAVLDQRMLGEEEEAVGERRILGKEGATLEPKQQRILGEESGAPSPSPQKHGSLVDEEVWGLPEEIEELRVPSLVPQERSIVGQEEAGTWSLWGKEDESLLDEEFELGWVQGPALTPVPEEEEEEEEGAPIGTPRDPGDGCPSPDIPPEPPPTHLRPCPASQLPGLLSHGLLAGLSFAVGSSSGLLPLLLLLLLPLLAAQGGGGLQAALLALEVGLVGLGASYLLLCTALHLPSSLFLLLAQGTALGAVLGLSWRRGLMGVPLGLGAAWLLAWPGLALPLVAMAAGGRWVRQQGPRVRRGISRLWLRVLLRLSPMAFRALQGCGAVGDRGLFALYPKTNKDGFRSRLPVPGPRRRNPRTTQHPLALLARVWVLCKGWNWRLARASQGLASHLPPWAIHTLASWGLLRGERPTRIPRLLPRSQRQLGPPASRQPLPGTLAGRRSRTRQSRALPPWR
Chain of FGFR1 (P11362 22-822): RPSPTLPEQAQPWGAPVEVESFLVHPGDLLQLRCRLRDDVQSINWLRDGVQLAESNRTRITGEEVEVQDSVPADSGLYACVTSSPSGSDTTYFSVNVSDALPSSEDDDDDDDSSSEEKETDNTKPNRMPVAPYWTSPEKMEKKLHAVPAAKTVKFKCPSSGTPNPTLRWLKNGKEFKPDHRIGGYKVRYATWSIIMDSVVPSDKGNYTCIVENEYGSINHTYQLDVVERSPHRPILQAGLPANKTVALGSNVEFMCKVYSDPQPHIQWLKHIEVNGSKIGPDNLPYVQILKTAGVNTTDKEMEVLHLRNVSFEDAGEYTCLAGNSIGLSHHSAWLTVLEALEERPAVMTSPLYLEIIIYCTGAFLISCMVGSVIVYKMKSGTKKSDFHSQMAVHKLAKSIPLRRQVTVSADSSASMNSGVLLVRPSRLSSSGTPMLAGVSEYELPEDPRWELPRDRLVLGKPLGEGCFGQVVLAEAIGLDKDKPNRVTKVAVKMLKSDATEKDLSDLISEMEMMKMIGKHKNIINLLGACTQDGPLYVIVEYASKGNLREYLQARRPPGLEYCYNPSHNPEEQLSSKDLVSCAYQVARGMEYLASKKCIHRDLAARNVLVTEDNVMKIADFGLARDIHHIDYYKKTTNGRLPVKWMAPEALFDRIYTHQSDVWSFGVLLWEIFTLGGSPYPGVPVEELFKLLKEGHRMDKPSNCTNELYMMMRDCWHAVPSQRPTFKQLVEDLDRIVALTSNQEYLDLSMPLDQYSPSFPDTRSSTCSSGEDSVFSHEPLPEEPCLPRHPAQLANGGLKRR
Chain of RET (P07949 29-1114): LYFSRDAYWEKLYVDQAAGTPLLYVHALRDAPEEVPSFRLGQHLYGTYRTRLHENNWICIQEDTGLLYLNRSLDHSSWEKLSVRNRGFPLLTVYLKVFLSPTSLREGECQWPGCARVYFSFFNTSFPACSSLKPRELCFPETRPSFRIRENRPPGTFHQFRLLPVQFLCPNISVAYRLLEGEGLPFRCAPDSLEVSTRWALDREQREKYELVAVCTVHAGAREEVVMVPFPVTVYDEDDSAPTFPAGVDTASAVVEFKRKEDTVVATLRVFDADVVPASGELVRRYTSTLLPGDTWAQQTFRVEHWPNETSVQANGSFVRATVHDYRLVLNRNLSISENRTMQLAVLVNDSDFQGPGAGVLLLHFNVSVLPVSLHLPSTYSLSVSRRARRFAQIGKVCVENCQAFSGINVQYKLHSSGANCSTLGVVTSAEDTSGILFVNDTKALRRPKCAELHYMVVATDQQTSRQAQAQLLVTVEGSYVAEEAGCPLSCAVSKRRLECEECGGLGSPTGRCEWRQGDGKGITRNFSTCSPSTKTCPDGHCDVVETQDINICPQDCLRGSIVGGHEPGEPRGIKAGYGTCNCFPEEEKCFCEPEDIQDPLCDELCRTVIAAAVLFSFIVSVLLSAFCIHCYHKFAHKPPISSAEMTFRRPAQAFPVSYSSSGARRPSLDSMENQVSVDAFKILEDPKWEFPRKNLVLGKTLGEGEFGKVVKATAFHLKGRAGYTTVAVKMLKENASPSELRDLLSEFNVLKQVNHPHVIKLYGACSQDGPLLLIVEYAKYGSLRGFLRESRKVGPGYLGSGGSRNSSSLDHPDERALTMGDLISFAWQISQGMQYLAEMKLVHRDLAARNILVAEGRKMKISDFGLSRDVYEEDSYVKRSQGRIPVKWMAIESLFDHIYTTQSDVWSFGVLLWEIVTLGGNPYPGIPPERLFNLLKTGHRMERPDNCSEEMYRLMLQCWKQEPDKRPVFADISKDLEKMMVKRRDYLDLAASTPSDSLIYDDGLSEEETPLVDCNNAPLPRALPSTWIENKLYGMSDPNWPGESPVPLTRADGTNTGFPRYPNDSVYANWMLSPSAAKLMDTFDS
Chain of FYN (P06241 whole entry): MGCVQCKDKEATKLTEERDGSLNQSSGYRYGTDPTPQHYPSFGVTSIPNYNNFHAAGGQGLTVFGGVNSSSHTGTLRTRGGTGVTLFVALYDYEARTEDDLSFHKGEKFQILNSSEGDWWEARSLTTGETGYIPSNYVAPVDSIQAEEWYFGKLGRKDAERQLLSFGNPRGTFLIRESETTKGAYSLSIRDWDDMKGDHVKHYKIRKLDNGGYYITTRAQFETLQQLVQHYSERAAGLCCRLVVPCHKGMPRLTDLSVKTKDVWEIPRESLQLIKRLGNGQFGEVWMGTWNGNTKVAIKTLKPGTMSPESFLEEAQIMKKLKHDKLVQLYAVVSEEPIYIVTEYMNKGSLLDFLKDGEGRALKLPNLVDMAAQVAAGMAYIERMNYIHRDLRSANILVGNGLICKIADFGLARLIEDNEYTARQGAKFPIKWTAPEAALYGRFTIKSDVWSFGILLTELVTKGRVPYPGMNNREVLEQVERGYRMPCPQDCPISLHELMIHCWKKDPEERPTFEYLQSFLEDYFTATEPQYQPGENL

inhibition at 1 µM (EPHA7): ≥ 70% | inhibition at 1 µM (ZAK): ≥ 70% | inhibition at 1 µM (BLK): ≥ 70% | inhibition at 1 µM (LYNB): ≥ 70% | inhibition at 1 µM (DDR1): ≥ 70% | inhibition at 1 µM (FYN): ≥ 70% | inhibition at 1 µM (TXK): ≥ 70% | inhibition at 1 µM (YSK4): ≥ 70% | inhibition at 1 µM (EPHA3): ≥ 70% | inhibition at 1 µM (TAOK2): ≥ 70% | inhibition at 1 µM (RAF1): ≥ 70% | pIC50 (GCK): 5.00 to 6.00 | inhibition at 1 µM (JAK1): ≥ 70% | inhibition at 1 µM (ARAF): ≥ 70% | inhibition at 1 µM (CSK): ≥ 70% | GI50 (Ba/F3 (N-Ras G12D)): < 0.5 µM | inhibition at 1 µM (RET): ≥ 70% | inhibition at 1 µM (PEAK1): ≥ 70% | inhibition at 1 µM (FGFR1): ≥ 70% | inhibition at 1 µM (EPHB1): ≥ 70% | inhibition at 1 µM (BMX): ≥ 70% | inhibition at 1 µM (EPHA5): ≥ 70% | inhibition at 1 µM (EPHB4): ≥ 70% | inhibition at 1 µM (FMS): ≥ 70% | inhibition at 1 µM (JAK2): ≥ 70% | inhibition at 1 µM (YES): ≥ 70% | inhibition at 1 µM (SRMS): ≥ 70% | inhibition at 1 µM (PDGFRb): ≥ 70%
SMILES: Cc1ccc(NC(=O)c2cccc(C(F)(F)F)c2)cc1-c1cc2cnc(N)nc2c(=O)[nH]1 [Compound No. 55, N-(3-(2-amino-8-oxo-7,8-dihydropyrido[3,4-d]pyrimidin-6-yl)-4-methylphenyl)-3-(trifluoromethyl)benzamide]
